We go through one substance from patent publication US11517598B2 (priority 2016, dated 2022).

Experiment [1] relates to VSVΔ51 in various human and mouse cancer cell lines resistant to VSVΔ51 infection. In kind it is cell-based.
Experiment [2] concerns VSVΔ51 in various human and mouse cancer cell lines. Type of experiment: cell-based.

In the case of Sodium orthovanadate, in experiment [1], the “VSVΔ51 infection and viral titer” value is recorded as “Comparable results”. Moreover, the plaque size result in experiment [2] is reported as “substantially increased plaque size”.
